# Legend:
# Cu(II)–Aβ40/Aβ42 = assay: Aβ aggregation inhibition/disaggregation experiments (gel/western blot, TEM), Cu(II); assay type: biochemical; details: Aβ 25 μM, compound 50 μM, 37 °C, 24 h; gel/western blot and TEM
# Protocol: (§1) The ability of 1–4 to control the aggregation of both metal-free Aβ and metal-Aβ in inhibition (Fig. 2) and disaggregation experiments (Supplementary Fig. 1) was evaluated using the two major Aβ isoforms (Aβ40/Aβ42)[1][2][3][6][16] found in the AD-affected brain. Molecular weight (MW) distributions and morphologies of the resulting Aβ species were determined by gel electrophoresis followed by western blotting (gel/western blot) and transmission electron microscopy (TEM). Generally, under the experimental conditions employed herein, compound-free Aβ samples with and without metal ions assemble into a distribution of large aggregates that are too big to penetrate into the gel matrix, which yields very little smearing in the gel/western blots, but they can be visualized by TEM. The administration of compounds, able to interact with Aβ, inhibit the formation of high MW aggregates, and/or disassemble preformed aggregates, typically generates smaller-sized Aβ species that can enter into the gel and produce a substantial amount of streaking compared with the samples containing Aβ only.
# Before experiments, Aβ40 or Aβ42 was dissolved in ammonium hydroxide (NH4OH; 1% v/v, aq). The resulting solution was aliquoted, lyophilized overnight and stored at −80 °C. A stock solution of Aβ was then prepared by dissolving lyophilized peptide in 1% NH4OH (10 μl) and diluting with ddH2O. The concentration of the solution was determined by measuring the absorbance of the solution at 280 nm (ɛ=1,450 M^–1 cm^–1 for Aβ40; ɛ=1,490 M^–1 cm^–1 for Aβ42). The peptide stock solution was diluted to a final concentration of 25 μM in Chelex-treated buffered solution containing HEPES ([…]; pH 6.6 for Cu(II) samples; pH 7.4 for metal-free and Zn(II) samples) and NaCl ([…]). For the inhibition studies, compounds (final concentration 50 μM, 1% v/v dimethyl sulfoxide (DMSO)) were added to the sample of Aβ (25 μM) in the absence and presence of a metal chloride salt (CuCl2 or ZnCl2; 25, 50, 100 or 125 μM) followed by incubation at 37 °C with constant agitation for 24 h. For the disaggregation studies, Aβ with and without a metal chloride salt was incubated for 24 h at 37 °C with constant agitation to generate preformed Aβ aggregates. The resulting samples were then treated with compounds (50 μM) and incubated with constant agitation for additional 24 h.
# The Aβ samples from in vivo or in vitro experiments were analysed by gel electrophoresis followed by western blotting using an anti-Aβ antibody (6E10)[24][25][27][28][29]. Samples (10 μl) were separated on a 10–20% Tris-tricine gel (Invitrogen, Grand Island, NY, USA). […]
# [1] = test system: human neuroblastoma SK-N-BE(2)-M17 (M17) cells; assay: Cell viability (MTT assay), compounds with and without metal ions; assay type: cell-based; details: with and without Cu(II) and Zn(II), up to 20 μM
# Protocol: (§2) The M17 cell line was purchased from the American Type Culture Collection (ATCC, Manassas, VA, USA). The cell line was maintained in media containing 50% minimum essential medium and 50% F12 (GIBCO, Grand Island, NY, USA), supplemented with 10% fetal bovine serum (Sigma), 100 U ml^−1 penicillin, and […] streptomycin (GIBCO). The cells were grown and maintained at 37 °C in a humidified atmosphere with 5% CO2. […] Cell viability upon treatment of compounds was determined using the MTT assay (Sigma). M17 cells were seeded in a 96-well plate (15,000 cells in 100 μl per well). The cells were treated with Aβ (20 μM) with or without CuCl2 or ZnCl2 (20 μM), followed by the addition of compounds (20 μM, 1% v/v final DMSO concentration), and incubated for 24 h. After incubation, 25 μl MTT (5 mg ml^−1 in phosphate buffered saline (PBS, pH 7.4, GIBCO) was added to each well and the plate was incubated for 4 h at 37 °C. Formazan produced by the cells was solubilized using an acidic solution of N,N-dimethylformamide (DMF, 50%, v/v aq) and SDS (20%, w/v) overnight at room temperature in the dark. The absorbance was measured at 600 nm using a microplate reader. Cell viability was calculated relative to cells containing an equivalent amount of DMSO.
# [2] = test system: Aβ40/Aβ42 toxicity in M17 cells; assay: Cell viability (MTT assay), compounds with Aβ and metal–Aβ; assay type: cell-based, human; details: compound 20 μM, Aβ40/Aβ42 20 μM, CuCl2 or ZnCl2 20 μM, 24 h
# Protocol: as §2
# Solubility = assay type: physicochemical
# Zn(II)–Aβ40/Aβ42 = assay: Aβ aggregation inhibition/disaggregation experiments (gel/western blot, TEM), Zn(II); assay type: biochemical; details: Aβ 25 μM, compound 50 μM, 37 °C, 24 h; gel/western blot and TEM
# Protocol: as §1
# Before experiments, Aβ40 or Aβ42 was dissolved in ammonium hydroxide (NH4OH; 1% v/v, aq). The resulting solution was aliquoted, lyophilized overnight and stored at −80 °C. A stock solution of Aβ was then prepared by dissolving lyophilized peptide in 1% NH4OH (10 μl) and diluting with ddH2O. The concentration of the solution was determined by measuring the absorbance of the solution at 280 nm (ɛ=1,450 M^–1 cm^–1 for Aβ40; ɛ=1,490 M^–1 cm^–1 for Aβ42). The peptide stock solution was diluted to a final concentration of 25 μM in Chelex-treated buffered solution containing HEPES ([…]; pH 6.6 for Cu(II) samples; pH 7.4 for metal-free and Zn(II) samples) and NaCl (150 μM). […]
# The Aβ samples from in vivo or in vitro experiments were analysed by gel electrophoresis followed by western blotting using an anti-Aβ antibody (6E10)[24][25][27][28][29]. […]
Water solubility relative to 1 (Solubility),SMILES,Modulation of Cu(II)-induced Aβ aggregation (Cu(II)–Aβ40/Aβ42),Toxicity in M17 cells [1],Toxicity induced by metal–Aβ [2],Modulation of Zn(II)-induced Aβ aggregation (Zn(II)–Aβ40/Aβ42),Solubility in the 2-deoxyribose assay buffer (Solubility; phosphate buffer pH 7.2)
much lower degrees of water solubility,"COc1cc(NCc2ccccn2)cc(OC)c1 [compound 2, 3,5-dimethoxy-N-(pyridin-2-ylmethyl)aniline]",modulating activity at higher Cu(II) concentrations,nontoxic,diminished,–,–
–,"Nc1ccc(NCc2ccccn2)cc1 [compound 1, N^1-(pyridin-2-ylmethyl)benzene-1,4-diamine]",redirect Cu(II)-promoted Aβ40 and Aβ42 aggregation,nontoxic,diminished,did not show any noticeable activity,–
–,"CN(C)c1ccc(NCc2ccc[nH]2)cc1 [compound 4, N^1-((1H-pyrrol-2-yl)methyl)-N^4,N^4-dimethylbenzene-1,4-diamine]",redirect both Cu(II)- and Zn(II)-induced Aβ aggregation,–,–,redirect both Cu(II)- and Zn(II)-induced Aβ aggregation,poor solubility under the assay conditions
–,"CN(C)c1ccc(NCc2ccc3ccccc3n2)cc1 [compound 3, N^1,N^1-dimethyl-N^4-(quinolin-2-ylmethyl)benzene-1,4-diamine]",modulates Aβ aggregation involved by both Cu(II) and Zn(II),–,–,modulates Aβ aggregation involved by both Cu(II) and Zn(II),–

# From article PMC5065625, “Structure-mechanism-based engineering of chemical regulators targeting distinct pathological factors in Alzheimer's disease” (Nature Communications, 2016)
